Experimental data as given in patent US20100222344A1, “4-ANILINO-SUBSTITUTED QUINAZOLINE DERIVATIVES AS TYROSINE KINASE INHIBITORS” (AstraZeneca AB, priority 2005, published 2010).

Tests used:
erbB2 tyrosine kinase = target: T1, erbB2 tyrosine kinase (Homo sapiens, UniProt P04626); test: Test (a) protein tyrosine kinase phosphorylation assay, erbB2; format: biochemical; details: read-out: IC50 Test (a): Inhibition of erbB2 tyrosine kinase protein phosphorylation
T1 construct: Recombinant intracellular fragments of EGFR, erbB2 and erbB4; made in house; host or cells: baculovirus/Sf21 insect cells (cleared lysate used)
Method: (§1) a) Protein Tyrosine Kinase phosphorylation Assays
(§2) This test measures the ability of a test compound to inhibit the phosphorylation of a tyrosine containing polypeptide substrate by EGFR, erbB2 and erbB4 tyrosine kinase enzyme.
(§3) Recombinant intracellular fragments of EGFR, erbB2 and erbB4 (accession numbers X00588, X03363 and L07868 respectively) were cloned and expressed in the baculovinis/Sf21 system. […]
(§4) Constitutive kinase activity of these recombinant proteins was determined by their ability to phosphorylate a synthetic peptide (made up of a random co-polymer of Glutamic Acid, Alanine and Tyrosine in the ratio of 6:3:1). […]
(§5) The immobilised phospho-peptide product of the reaction was detected by immunological methods. […] After further washing, HRP activity in each well of the plate was measured colorimetrically using 22′-Azino-di-[3-ethylbenzthiazoline sulfonate (6)]diammonium salt crystals (ABTS™ from Roche) as a substrate.
(§6) Quantification of colour development and thus enzyme activity was achieved by the measurement of absorbance at 405 nm on a Molecular Devices ThermoMax microplate reader. Kinase inhibition for a given compound was expressed as an IC50 value. […] The range of phosphorylation was calculated from the positive (vehicle plus ATP) and negative (vehicle minus ATP) control values.

EGFR tyrosine kinase = target: T2, EGFR tyrosine kinase (Homo sapiens, UniProt P00533); test: Test (a) protein tyrosine kinase phosphorylation assay, EGFR; format: biochemical; details: read-out: IC50 Test (a): Inhibition of EGFR tyrosine kinase protein phosphorylation
T2 construct: Recombinant intracellular fragments of EGFR, erbB2 and erbB4; made in house; host or cells: baculovirus/Sf21 insect cells (cleared lysate used)
Method: as §1, §2, §3, §4, §5, §6

BT474C cells = test: Test (e) BT474C cell proliferation assay; format: cell-based; details: Homo sapiens, 96 h, four-day MTS assay, read-out: IC50 Test (e): Inhibition of proliferation of BT474C cells
From the text: The BT-474 tumour cell line (human mammary carcinoma) was obtained from Dr Baselga (at Laboratorio Recerca Oncologica, Paseo Vall D'Hebron 119-129, Barcelona 08035, Spain). This cell line was subcloned and a certain population (hereinafter referred to as “BT474C”) was obtained.
e) BT474C Cell Proliferation Assay
BT474C cells are a sub-cloned population of in vivo competent cells, as discussed above.
The BT474C assay is a MTS (3-(4,5-dimethylthiazol-2-yl)-5-(3-carboxymethoxyphenyl)-2-(4-sulfophenyl)-2H-tetrazolium, inner salt—Promega G1111) endpoint-based cell proliferation assay, which measures the ability of a test compound to inhibit the proliferation of cells over a four-day period. […] Cell density is measured using a haemocytometer and viability is calculated using Trypan Blue solution before being further diluted in Assay Medium and seeded at a density of 1×10^4 cells per well (in 100 μl) into clear bottomed 96 well plates (Costar 3598). […] The plate is read at 490 nm on a spectrophotometer.
Assay plates are left at 37° C. for 4 days and then treated with MTS solution (as above), which is converted to a soluble formazan product by active cells. After incubating the plates for 2 hours the reaction is stopped by the addition of 10% SDS (Sodium dodecyl sulphate) and the plates are read at 490 nm on a spectrophotometer giving absorbance values relative to the concentration of converted dye. […]

T2 sequence (P00533 669-1210 limits assumed): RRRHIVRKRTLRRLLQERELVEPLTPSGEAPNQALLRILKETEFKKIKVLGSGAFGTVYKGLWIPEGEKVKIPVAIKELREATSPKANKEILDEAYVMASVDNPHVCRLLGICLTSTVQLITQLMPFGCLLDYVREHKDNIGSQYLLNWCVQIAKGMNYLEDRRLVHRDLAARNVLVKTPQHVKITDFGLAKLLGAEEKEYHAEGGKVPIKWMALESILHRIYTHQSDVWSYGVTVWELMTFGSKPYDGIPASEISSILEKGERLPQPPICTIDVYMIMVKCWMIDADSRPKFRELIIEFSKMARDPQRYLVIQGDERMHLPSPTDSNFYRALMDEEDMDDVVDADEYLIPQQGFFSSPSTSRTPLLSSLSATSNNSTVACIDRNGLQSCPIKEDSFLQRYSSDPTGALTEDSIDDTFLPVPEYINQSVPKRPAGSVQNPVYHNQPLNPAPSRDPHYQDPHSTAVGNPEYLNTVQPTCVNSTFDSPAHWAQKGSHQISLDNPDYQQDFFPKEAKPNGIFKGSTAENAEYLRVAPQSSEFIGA
T1 sequence (P04626 676-1255 limits assumed): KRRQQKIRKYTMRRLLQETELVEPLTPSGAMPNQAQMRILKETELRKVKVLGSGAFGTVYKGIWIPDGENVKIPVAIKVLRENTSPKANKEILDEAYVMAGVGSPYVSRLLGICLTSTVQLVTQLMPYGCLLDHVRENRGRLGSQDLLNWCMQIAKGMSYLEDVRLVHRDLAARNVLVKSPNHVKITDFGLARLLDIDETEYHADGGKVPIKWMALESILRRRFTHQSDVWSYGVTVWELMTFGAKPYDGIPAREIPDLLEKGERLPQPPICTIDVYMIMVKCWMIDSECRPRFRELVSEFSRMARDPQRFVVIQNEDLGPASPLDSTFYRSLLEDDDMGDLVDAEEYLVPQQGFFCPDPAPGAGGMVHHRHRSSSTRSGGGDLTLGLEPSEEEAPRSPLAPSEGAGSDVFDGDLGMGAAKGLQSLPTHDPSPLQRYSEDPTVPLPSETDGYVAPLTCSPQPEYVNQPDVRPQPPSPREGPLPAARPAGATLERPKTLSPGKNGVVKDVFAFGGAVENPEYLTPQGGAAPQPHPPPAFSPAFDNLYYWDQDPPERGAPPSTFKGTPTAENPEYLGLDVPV

Compound | IC50 (erbB2 tyrosine kinase) | IC50 (EGFR tyrosine kinase) | IC50 (BT474C cells)
C[C@@H](Oc1cccc2ncnc(Nc3ccc(OCC4CCCO4)c(Cl)c3)c12)C(=O)N1CCOCC1 (stereo partly drawn) [Example 2, N-[3-chloro-4-(tetrahydrofuran-2-ylmethoxy)phenyl]-5-[(1R)-1-methyl-2-morpholin-4-yl-2-oxoethoxy]quinazolin-4-amine] | 8 nM | 362 nM | 337 nM
CSCCCOc1ccc(Nc2ncnc3cccc(O[C@H](C)C(=O)N4CCOCC4)c23)cc1Cl [Example 3, N-{3-chloro-4-[3-(methylthio)propoxy]phenyl}-5-[(1R)-1-methyl-2-morpholin-4-yl-2-oxoethoxy]quinazolin-4-amine] | 3 nM | 169 nM | 418 nM
